Entries after “also recorded” stand apart in the source; their conditions may differ.
Experiments:
[1] = test system: Mock transfected HEK293T/Gα16-gustducin 44 cells; test: Fluo-4 calcium assay, mock transfection (negative control); type: cell-based; conditions: Calcium Chloride 2 mM, 745047-97-6 25 μM; for Neg. control (mock transfection) AVG (mean ΔF/F): mock transfected cells, six replicates, MSG 2.5 mM + IMP 0.2 mM
Method: (§1) Fluo-4 is a fluorescent indicator for intracellular calcium and allows for determination of changes in the intracellular calcium concentration, in particular an increase in response to receptor activation occurring after ligand addition.
(§2) HEK293 cells stably expressing Gα16-gustducin 44 were used as host cells and transfected with various constructs as described in example 4.
(§3) Black, clear-bottom 96-well plates were used for all assays. They were seeded the day before with 8500 transfected cells per well and maintained at 37° C. overnight in an a growth medium appropriate for the cells used. For HEK293 cells, Dulbecco's Modified Eagle medium containing high glucose, L-glutamine, pyroxidine hydrochloride, and supplemented with 10% fetal bovine serum was used for growth and maintenance of the HEK293 cells.
At the time of the assay, the growth medium was discarded and cells were incubated for 1 hour (at 37° C. in the dark) with 50 μl of a calcium assay solution consisting of 1.5 μM Fluo-4 AM (Molecular Probes™, Invitrogen, US) and 2.5 μM probenicid (Sigma-Aldrich) dissolved in a reduced calcium C1 buffer solution. […]
(§4) For assay reading, the plate was placed in a FLIPR (fluorescence imaging plate reader (FLIPR-Tetra, Molecular Devices)), and receptor activation was initiated following addition of 20 μl of a 10× concentrated ligand stock solution, which were prepared in reduced calcium C1 buffer.
(§5) Fluorescence was continuously monitored for 15 seconds prior to ligand addition and for 105 seconds after ligand addition (45-105 sec may be sufficient).
(§6) Receptor activation is determined by the increase in peak fluorescence (F) normalized to the baseline fluorescence (F0). The data are normalized using the following equation: ΔF/F=(F−F0)/F0, where F is the peak fluorescence signal and F0 is the baseline fluorescence signal, wherein the baseline fluorescence represents the mean fluorescence calculated for the first 10 to 15 seconds prior to ligand addition. […]
(§7) As a negative control, mock transfected cells were exposed to the same concentration of ligand and the concentration of calcium traces not corresponding to a signal was determined.
The intracellular calcium response following stimulation with various ligands was determined in HEK293T cells stably expressing Gα16-gustducin 44 and transfected with CSR:T1R1 and/or CSR:T1R3 chimeric constructs. […]
The transfections were performed as described in example 4. Results were calculated as described in example 1 (data indicates the normalized increase in fluorescence over baseline after stimulation (ΔF/F); the mean (AVG) and the ±Standard deviation (STD) of six replicate experiments is given). […]
The calcium mobilization signals obtained are increase in peak fluorescence (F) normalized to the baseline fluorescence (F0). […]

[2] = test system: CSR:T1R1/CSR:T1R3 chimeric heterodimer; test: Fluo-4 calcium assay, cells transfected with CSR:T1R1 and CSR:T1R3; type: cell-based, human; conditions: for response (calcium signal) of CSR:T1R1/CSR:T1R3 chimeric heterodimer, in words / CSR:T1R1/CSR:T1R3 AVG (mean ΔF/F): Calcium Chloride 2 mM, 745047-97-6 25 μM; for CSR:T1R1/CSR:T1R3 AVG (mean ΔF/F): HEK293T/Gα16-gustducin 44 cells, six replicates, MSG 2.5 mM + IMP 0.2 mM; for signal in CSR:T1R1/CSR:T1R3 cells as magnitude of signals obtained in cells transfected with the hCaSR receptor: relative to hCaSR transfected cells
Method: as §1, §2, §3
(§8) At the time of the assay, the growth medium was discarded and cells were incubated for 1 hour (at 37° C. in the dark) with 50 μl of a calcium assay solution consisting of 1.5 μM Fluo-4 AM (Molecular Probes™, Invitrogen, US) and 2.5 μM probenicid (Sigma-Aldrich) dissolved in a reduced calcium C1 buffer solution. Reduced calcium C1 buffer solution contains 130 mM NaCl, 5 mM KCl, 10 mM Hepes, 0.5 mM CaCl2 (reduced from 2 mM) and 10 mM glucose (pH 7.4).
(§9) After the initial 1 hour loading period, the plates were washed 5 times with 100 μl per well of reduced calcium C1 buffer using an automated plate washer (BioTek) and after washing, the plate was further incubated for 30 minutes at room temperature in the dark to allow for complete de-esterification of the Fluo-4-AM. The buffer solutions were discarded, the plate was washed 5 times with 100 μl reduced calcium C1 wash buffer and finally the cells were reconstituted in 180 μl of reduced calcium C1 wash buffer.
as §4, §5
(§10) Receptor activation is determined by the increase in peak fluorescence (F) normalized to the baseline fluorescence (F0). The data are normalized using the following equation: ΔF/F=(F−F0)/F0, where F is the peak fluorescence signal and F0 is the baseline fluorescence signal, wherein the baseline fluorescence represents the mean fluorescence calculated for the first 10 to 15 seconds prior to ligand addition.
(§11) This value obtained corresponds to the calcium increase of the cell in response to a direct or indirect interaction with the transfected receptor (“signal”).
as §7
(§12) HEK293T cells that stably express Gα16-gustducin 44 (formed as described in WO 2004/055048) were transfected with the CSR::T1R1, CSR::T1R3 constructs, or with hCaSR as follows:
On day 0, the HEK293T/Gα16-gustducin 44 cells were plated in 96-well black, clear-bottom plates at a density of 8500 cells per well and grown overnight in selective growth media. On day 1, the media was changed to an antibiotic-free and serum-free growth medium and the cells were transfected using 75 ng each of CSR:T1R1 and CSR:T1R3 (total 150 ng), T1R1 and T1R3 (total 150 ng), or 75 ng hCaSR vector construct DNA and 0.3 μl of Lipofectamine 2000 (Invitrogen).
For transfection of either the CSR:T1R1/CSR:T1R3 heterodimer, 75 ng of each vector construct was combined for a total of 150 ng per pair and used together with 0.3 μl of Lipofectamine 2000. 75 ng of hCaSR vector DNA was used for this calcium-sensing monomeric GPCR […]

[3] = target: T1, hCaSR (Homo sapiens, UniProt P41180, E1011Q); test: Fluo-4 calcium assay, cells transfected with hCaSR; type: cell-based; conditions: Calcium Chloride 2 mM, 745047-97-6 25 μM, MSG 2.5 mM + IMP 0.2 mM; for hCaSR AVG (mean ΔF/F): HEK293T/Gα16-gustducin 44 cells, six replicates
T1 construct: For hCaSR, a commercially available pCMV-based vector construct which is based on the full length cDNA was used; host or cells: HEK293T cells stably expressing Galpha16-gustducin 44, transiently transfected with 75 ng of vector
T1 sequence (P41180 20-1078 E1011Q): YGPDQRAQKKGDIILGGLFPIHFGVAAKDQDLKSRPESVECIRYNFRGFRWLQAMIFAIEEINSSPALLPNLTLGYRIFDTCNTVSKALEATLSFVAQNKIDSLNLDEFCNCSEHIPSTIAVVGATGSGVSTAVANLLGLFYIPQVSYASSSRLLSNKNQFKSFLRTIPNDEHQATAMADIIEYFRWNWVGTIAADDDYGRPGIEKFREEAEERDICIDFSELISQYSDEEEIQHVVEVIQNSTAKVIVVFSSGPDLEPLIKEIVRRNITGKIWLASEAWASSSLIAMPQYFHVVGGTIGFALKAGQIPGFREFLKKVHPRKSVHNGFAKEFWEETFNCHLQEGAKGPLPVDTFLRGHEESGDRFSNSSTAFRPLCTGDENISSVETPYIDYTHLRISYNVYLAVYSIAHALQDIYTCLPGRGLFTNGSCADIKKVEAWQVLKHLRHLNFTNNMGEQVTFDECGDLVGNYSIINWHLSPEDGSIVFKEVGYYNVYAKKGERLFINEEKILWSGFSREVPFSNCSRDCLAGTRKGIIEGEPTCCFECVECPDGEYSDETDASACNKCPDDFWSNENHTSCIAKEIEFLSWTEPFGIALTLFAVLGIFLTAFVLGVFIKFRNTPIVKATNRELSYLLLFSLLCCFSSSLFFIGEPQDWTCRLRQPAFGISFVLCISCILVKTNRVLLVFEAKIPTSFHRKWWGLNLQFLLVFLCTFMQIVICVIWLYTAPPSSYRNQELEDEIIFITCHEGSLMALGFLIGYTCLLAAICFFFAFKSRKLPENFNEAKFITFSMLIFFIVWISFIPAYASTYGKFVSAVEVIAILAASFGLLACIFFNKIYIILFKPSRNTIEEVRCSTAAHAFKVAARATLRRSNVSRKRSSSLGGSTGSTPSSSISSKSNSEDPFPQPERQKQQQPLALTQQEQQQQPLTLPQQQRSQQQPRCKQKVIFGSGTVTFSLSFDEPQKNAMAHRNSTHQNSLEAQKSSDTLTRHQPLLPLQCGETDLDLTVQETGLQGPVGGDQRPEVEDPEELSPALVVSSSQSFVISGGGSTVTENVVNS
Method: as §1, §2, §3, §8, §9, §4, §5, §6
As a negative control, mock transfected cells were exposed to the same concentration of ligand and the concentration of calcium traces not corresponding to a signal was determined. […]

[4] = test system: CSR:T1R1 chimeric homomer; test: Fluo-4 calcium assay, cells transfected with CSR:T1R1; type: cell-based, human; conditions: Calcium Chloride 2 mM, 745047-97-6 25 μM, MSG 2.5 mM + IMP 0.2 mM; for CSR:T1R1 AVG (mean ΔF/F): HEK293T/Gα16-gustducin 44 cells, six replicates
Method: as §1, §2, §3, §8, §9, §4, §5, §10, §11, §7, §12
On day 0, the HEK293T/Gα16-gustducin 44 cells were plated in 96-well black, clear-bottom plates at a density of 8500 cells per well and grown overnight in selective growth media. […]

| SMILES | response in mock transfected negative control, in words [1] | Neg. control (mock transfection) AVG (mean ΔF/F) [1] | response (calcium signal) of CSR:T1R1/CSR:T1R3 chimeric heterodimer, in words [2] | CSR:T1R1/CSR:T1R3 AVG (mean ΔF/F) [2] | signal in CSR:T1R1/CSR:T1R3 cells as magnitude of signals obtained in cells transfected with the hCaSR receptor [2] | hCaSR AVG (mean ΔF/F) [3] | response (calcium signal) of CSR:T1R1 chimeric homomer, in words [4] | CSR:T1R1 AVG (mean ΔF/F) [4] | response (calcium signal) of CSR:T1R1/CSR:T1R3 chimeric heterodimer, in words ([2]; listed as calcium) | response (calcium signal) of CSR:T1R1/CSR:T1R3 chimeric heterodimer, in words ([2]; listed as calcium chloride) | response (calcium signal) of hCaSR, in words ([3]; listed as calcium) | response (calcium signal) of hCaSR, in words ([3]; listed as calcium chloride) | response (calcium signal) of CSR:T1R1 chimeric homomer, in words ([4]; listed as calcium) | response (calcium signal) of CSR:T1R1 chimeric homomer, in words ([4]; listed as calcium chloride) |
| --- | --- | --- | --- | --- | --- | --- | --- | --- | --- | --- | --- | --- | --- | --- |
| COc1cc(C)ccc1CNC(=O)C(=O)NCCc1ccccn1 [745047-97-6-oxalamide, N-(2-Methoxy-4-methyl-benzyl)-N′-(2-pyridin-2-yl-ethyl)-oxalamide] | No response | 0.03 | significant increase of the signal; also recorded: significantly higher the background signals; also recorded: activated | 0.43 | approximately 50% | 0.04 | significant increase of the signal; also recorded: activated | 0.31 |  |  |  |  |  |  |
| [Ca+2].[Cl-].[Cl-] [Calcium, Calcium Chloride] | No response | 0.24 |  | 0.72 | approximately 50% | 1.44 |  | 0.78 | react to calcium; also recorded: activated | significant increase of the signal; also recorded: significantly higher the background signals | react to calcium | responded | react to calcium; also recorded: activated | significant increase of the signal |

Source: patent US8039233B2, “Nucleic acid sequences and their use in methods to identify umami modulatiors” (Givaudan S.A., priority 2007, dated 2011)
